From PubChem BioAssay (NCI)
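Grown in 96-well plates, cells were treated for 48 hours with each compound at five concentrations. Insufficient inhibition: endpoint recorded as highest concentration tested. GI50 marks 50% less growth. At the TGI there is no net growth.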

Tests used:
Assay in all cases: DTP human tumour cell line panel, 48 h
786-0 renal = tested on: 786-0 renal
A498 renal = tested on: A498 renal
A549 NSCLC = tested on: A549 NSCLC
ACHN renal = tested on: ACHN renal
BT-549 breast = tested on: BT-549 breast
CAKI-1 renal = tested on: CAKI-1 renal
CCRF-CEM leukemia = tested on: CCRF-CEM leukemia
COLO 205 colon = tested on: COLO 205 colon
DU-145 prostate = tested on: DU-145 prostate
EKVX NSCLC = tested on: EKVX NSCLC
HCC-2998 colon = tested on: HCC-2998 colon
HCT-116 colon = tested on: HCT-116 colon
HCT-15 colon = tested on: HCT-15 colon
HL-60(TB) leukemia = tested on: HL-60(TB) leukemia
HOP-62 NSCLC = tested on: HOP-62 NSCLC
HOP-92 NSCLC = tested on: HOP-92 NSCLC
HS 578T breast = tested on: HS 578T breast
HT29 colon = tested on: HT29 colon
IGROV1 ovarian = tested on: IGROV1 ovarian
K-562 leukemia = tested on: K-562 leukemia
KM12 colon = tested on: KM12 colon
LOX IMVI melanoma = tested on: LOX IMVI melanoma
M14 melanoma = tested on: M14 melanoma
MALME-3M melanoma = tested on: MALME-3M melanoma
MCF7 breast = tested on: MCF7 breast
MDA-MB-231 breast = tested on: MDA-MB-231 breast
MDA-MB-435 = tested on: MDA-MB-435
MOLT-4 leukemia = tested on: MOLT-4 leukemia
NCI-H226 lung = tested on: NCI-H226 lung
NCI-H460 lung = tested on: NCI-H460 lung
NCI-H522 lung = tested on: NCI-H522 lung
NCI/ADR-RES ovarian = tested on: NCI/ADR-RES ovarian
OVCAR-3 ovarian = tested on: OVCAR-3 ovarian
OVCAR-4 ovarian = tested on: OVCAR-4 ovarian
OVCAR-5 ovarian = tested on: OVCAR-5 ovarian
OVCAR-8 ovarian = tested on: OVCAR-8 ovarian
PC-3 prostate = tested on: PC-3 prostate
RPMI-8226 leukemia = tested on: RPMI-8226 leukemia
RXF 393 renal = tested on: RXF 393 renal
SF-268 CNS = tested on: SF-268 CNS
SF-295 CNS = tested on: SF-295 CNS
SF-539 CNS = tested on: SF-539 CNS
SK-MEL-2 melanoma = tested on: SK-MEL-2 melanoma
SK-MEL-28 melanoma = tested on: SK-MEL-28 melanoma
SK-MEL-5 melanoma = tested on: SK-MEL-5 melanoma
SK-OV-3 ovarian = tested on: SK-OV-3 ovarian
SN12C renal = tested on: SN12C renal
SNB-19 CNS = tested on: SNB-19 CNS
SNB-75 CNS = tested on: SNB-75 CNS
SR leukemia = tested on: SR leukemia
SW-620 colon = tested on: SW-620 colon
T-47D breast = tested on: T-47D breast
TK-10 renal = tested on: TK-10 renal
U251 CNS = tested on: U251 CNS
UACC-257 melanoma = tested on: UACC-257 melanoma
UACC-62 melanoma = tested on: UACC-62 melanoma
UO-31 renal = tested on: UO-31 renal

CCOc1ccc(-c2nnc(C3CC(NC(=O)c4cccc5nccnc45)C3)n2-c2ccccc2F)nc1 (configuration not stated)
GI50 (786-0 renal): 17.6 µM
TGI (786-0 renal): > 100 µM
GI50 (A498 renal): 8.31 µM
TGI (A498 renal): 58.6 µM
GI50 (A549 NSCLC): 24.2 µM
TGI (A549 NSCLC): > 100 µM
GI50 (ACHN renal): 15.1 µM
TGI (ACHN renal): 29.8 µM
GI50 (BT-549 breast): 10.9 µM
TGI (BT-549 breast): 23.7 µM
GI50 (CAKI-1 renal): 14.3 µM
TGI (CAKI-1 renal): > 100 µM
GI50 (CCRF-CEM leukemia): 21.3 µM
TGI (CCRF-CEM leukemia): 59.7 µM
GI50 (COLO 205 colon): 19.1 µM
TGI (COLO 205 colon): 50.9 µM
GI50 (DU-145 prostate): 25.9 µM
TGI (DU-145 prostate): > 100 µM
GI50 (EKVX NSCLC): 27 µM
TGI (EKVX NSCLC): > 100 µM
GI50 (HCC-2998 colon): 18.3 µM
TGI (HCC-2998 colon): 35.3 µM
GI50 (HCT-116 colon): 16 µM
TGI (HCT-116 colon): 36.2 µM
GI50 (HCT-15 colon): 23.2 µM
TGI (HCT-15 colon): 89 µM
GI50 (HL-60(TB) leukemia): 20.9 µM
TGI (HL-60(TB) leukemia): 48.3 µM
GI50 (HOP-62 NSCLC): 12.7 µM
TGI (HOP-62 NSCLC): 36.9 µM
GI50 (HOP-92 NSCLC): 4.02 µM
TGI (HOP-92 NSCLC): 40 µM
GI50 (HS 578T breast): 16.3 µM
TGI (HS 578T breast): 94.8 µM
GI50 (HT29 colon): 15.1 µM
TGI (HT29 colon): 32.4 µM
GI50 (IGROV1 ovarian): 17 µM
TGI (IGROV1 ovarian): > 100 µM
GI50 (K-562 leukemia): 24.1 µM
TGI (K-562 leukemia): > 100 µM
GI50 (KM12 colon): 23.6 µM
TGI (KM12 colon): 60.1 µM
GI50 (LOX IMVI melanoma): 17.5 µM
TGI (LOX IMVI melanoma): 36.7 µM
GI50 (M14 melanoma): 16.2 µM
TGI (M14 melanoma): 32.9 µM
GI50 (MALME-3M melanoma): 17.4 µM
TGI (MALME-3M melanoma): 47.2 µM
GI50 (MCF7 breast): 21.4 µM
TGI (MCF7 breast): 90.7 µM
GI50 (MDA-MB-231 breast): 17.7 µM
TGI (MDA-MB-231 breast): 51.8 µM
GI50 (MDA-MB-435): 21.2 µM
TGI (MDA-MB-435): 51.5 µM
GI50 (MOLT-4 leukemia): 14.8 µM
TGI (MOLT-4 leukemia): 39.9 µM
GI50 (NCI-H226 lung): 13.1 µM
TGI (NCI-H226 lung): 41.5 µM
GI50 (NCI-H460 lung): 26.9 µM
TGI (NCI-H460 lung): > 100 µM
GI50 (NCI-H522 lung): 14.9 µM
TGI (NCI-H522 lung): 34.2 µM
GI50 (NCI/ADR-RES ovarian): 19.2 µM
TGI (NCI/ADR-RES ovarian): 92.9 µM
GI50 (OVCAR-3 ovarian): 13.3 µM
TGI (OVCAR-3 ovarian): 36.1 µM
GI50 (OVCAR-4 ovarian): 12.2 µM
TGI (OVCAR-4 ovarian): > 100 µM
GI50 (OVCAR-5 ovarian): 18.2 µM
TGI (OVCAR-5 ovarian): 52.8 µM
GI50 (OVCAR-8 ovarian): 22.8 µM
TGI (OVCAR-8 ovarian): > 100 µM
GI50 (PC-3 prostate): 21.1 µM
TGI (PC-3 prostate): 86.9 µM
GI50 (RPMI-8226 leukemia): 12.9 µM
TGI (RPMI-8226 leukemia): 35.3 µM
GI50 (RXF 393 renal): 6.82 µM
TGI (RXF 393 renal): 21.5 µM
GI50 (SF-268 CNS): 20.4 µM
TGI (SF-268 CNS): > 100 µM
GI50 (SF-295 CNS): 18.7 µM
TGI (SF-295 CNS): 39.7 µM
GI50 (SF-539 CNS): 14.6 µM
TGI (SF-539 CNS): 29.2 µM
GI50 (SK-MEL-2 melanoma): 14.8 µM
TGI (SK-MEL-2 melanoma): 36.4 µM
GI50 (SK-MEL-28 melanoma): 19.3 µM
TGI (SK-MEL-28 melanoma): 48.1 µM
GI50 (SK-MEL-5 melanoma): 14.2 µM
TGI (SK-MEL-5 melanoma): 27.4 µM
GI50 (SK-OV-3 ovarian): 13.6 µM
TGI (SK-OV-3 ovarian): 38.2 µM
GI50 (SN12C renal): 14.7 µM
TGI (SN12C renal): 50.5 µM
GI50 (SNB-19 CNS): 24.5 µM
TGI (SNB-19 CNS): > 100 µM
GI50 (SNB-75 CNS): 13.2 µM
TGI (SNB-75 CNS): 46.4 µM
GI50 (SR leukemia): 16.5 µM
TGI (SR leukemia): 52.9 µM
GI50 (SW-620 colon): 31.9 µM
TGI (SW-620 colon): > 100 µM
GI50 (T-47D breast): 7.24 µM
TGI (T-47D breast): 39.6 µM
TGI (TK-10 renal): 31.1 µM
GI50 (U251 CNS): 10.7 µM
TGI (U251 CNS): 29.8 µM
GI50 (UACC-257 melanoma): 19.6 µM
TGI (UACC-257 melanoma): 51 µM
GI50 (UACC-62 melanoma): 17.5 µM
TGI (UACC-62 melanoma): 38.4 µM
TGI (UO-31 renal): > 100 µM
